Assay results reported in PubChem BioAssay AID463206 (Broad Institute, 2010).
Calls of active or inactive are those of the source.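 The calls were made as follows: active = caspase luminescence falls with dose and the half-maximal concentration AC50 from the fitted curve is at or below a set limit; inconclusive = flat fit at 30 to 70% signal loss, or invalid fit; inactive = AC50 above the limit, or signal rises instead.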

tested on: INS-1E cytokine-induced caspase-3/7, Caspase-Glo luminescence, 48 h; experiment: inhibitors of cytokine-induced caspase-3/7 activity, dose response, orthogonal assay for beta-cell apoptosis protection project, INS-1E rat cells, luminescence (AID 463206)

Structure (SMILES)	AC50
N#Cc1ccc(-c2csc(NNC(=O)c3ccccc3)n2)cc1	> 26 µM (inactive)
O=[N+]([O-])c1ccc(NC(=S)NCCc2ccc(F)cc2)cc1	> 26 µM (inactive)
O=C(/C=C/NNC(=O)c1ccccc1)c1ccc([N+](=O)[O-])cc1	> 26 µM (inactive)
O=C(NC1CCCC1)c1cc(COc2ccc3ncccc3c2)on1	> 26 µM (inactive)
CCS(=O)(=O)c1ncc(Cl)c(C(=O)Nc2ccc(S(=O)(=O)N3CCCC(C)C3)cc2)n1 (configuration not stated)	> 26 µM (inactive)
COc1ccccc1CNCC(O)Cn1c2ccccc2c2ccccc21 (configuration not stated)	> 26 µM (inactive)
CN(c1ccccc1)c1ccc(/C=C/[N+](=O)[O-])cc1	> 26 µM (inactive)
O=C1C=C(Nc2ccc(F)cc2)c2ccccc2C1=O	> 26 µM (inactive)
CC1CCC(C(C)C)C(OC(=O)Cn2c(-c3ccccc3)[n+](C)c3ccccc32)C1 (configuration not stated)	> 26 µM (inactive)
CCCCCCc1cc2cc(C(=O)Nc3cccc(OC)c3)c(=O)oc2cc1O	> 26 µM (inactive)
c1ccc(CNc2c(-c3cccc(SC4CCCCC4)c3)nc3ccccn23)cc1	> 26 µM (inactive)
Cc1cc(C(=O)N/N=C/c2cc(N=Nc3ccccc3)ccc2O)n[nH]1	> 26 µM (inactive)
O=C(Nc1cccc([N+](=O)[O-])c1)c1cc2ccccc2cc1O	> 26 µM (inactive)
S=C(Nc1ccc(Nc2ccccc2)cc1)Nc1ccccn1	> 26 µM (inactive)
O=C(CNc1ccc(F)cc1)N/N=C/c1c(O)ccc2ccccc12	> 26 µM (inactive)
O=c1c(Cl)c(Cl)cnn1Cc1ccc(F)cc1	> 26 µM (inactive)
Oc1ccc(Br)cc1CNc1cccc2cccnc12	> 26 µM (inactive)
O=C(NCCc1ccccc1)[C@@H]1CC=C[C@@H]2CCN(Cc3ccc(Cl)c(Cl)c3)C(=O)[C@@H]21	> 12 µM (inactive)
O=C(c1cc2sccc2n1Cc1ccc(F)cc1)N1CCN(c2nc3ccccc3s2)CC1	> 26 µM (inactive)
Cc1ccc(-c2sc(-c3ccccc3)nc2CC(=O)Nc2ccccc2F)cc1	> 26 µM (inactive)
CC[C@H](C)Cc1cn([C@@H](CCCCNC(=O)OC(C)(C)C)C(=O)NCCCCCCCCCCC(=O)N2CCN(C(=O)OC(C)(C)C)CC2)nn1	> 26 µM (inactive)
CCN(CC)CCn1nc2c3c(cccc3c1=O)-c1ccccc1-2	8.24 µM
Cc1ccc(C)n1-c1ccc(C(=O)Nc2ccccc2)cc1	> 26 µM (inactive)

Structure (SMILES)	AC50
O=C(N/N=C/c1cccnc1)c1ccccc1NS(=O)(=O)c1cccs1	> 26 µM (inactive)
COc1ccc(CCNc2ncnc3c2oc2ccccc23)cc1OC	> 26 µM (inactive)
CC(C)c1ccc(/C=C(\c2nc3ccccc3[nH]2)S(=O)(=O)c2ccccc2)cc1	> 26 µM (inactive)
N#Cc1c(Cl)nsc1NC(=O)c1ccccc1	> 26 µM (inactive)
Cc1sc2ncnc(N/N=C/c3ccccc3O)c2c1C	> 26 µM (inactive)
CC(C)(C)n1[nH]c2c3c(ccc2c1=O)C(=O)c1ccccc1C3=O	> 26 µM (inactive)
Cc1ccc(O)c(/C=N/NC(=O)c2[nH]ncc2Br)c1	> 26 µM (inactive)
CCCCCc1cc(=O)oc2c(C(CCN3CCCCC3)c3ccc4c(c3)OCO4)c(OC)cc(OC)c12 (configuration not stated)	> 26 µM (inactive)
Cc1cc(Nc2cccc(Cl)c2)nc(NCc2ccccc2)n1	> 26 µM (inactive)
CCCCCCCCCCOC(=O)Cn1c(COc2ccccc2C)[n+](C)c2ccccc21	> 26 µM (inactive)
O=C1/C(=N\S(=O)(=O)c2cccs2)C([n+]2ccc(CCCc3ccccc3)cc2)=C([O-])c2ccccc21	> 12 µM (inactive)
COc1ccc(-c2csc(NC(=O)c3ccccc3NS(=O)(=O)c3ccc(F)c(F)c3)n2)cc1	> 26 µM (inactive)
COc1cc(/C=C/C(=O)c2ccc([N+](=O)[O-])o2)ccc1O	> 26 µM (inactive)
C/C(=N\N1C(=O)c2ccccc2NC1c1ccccc1)c1ccccc1O (configuration not stated)	> 26 µM (inactive)
C=CCc1cccc(/C=N/NC(=O)c2ccc3nc[nH]c3c2)c1O	> 26 µM (inactive)
CCS(=O)(=O)c1ncc(Cl)c(C(=O)Nc2ccccc2OC)n1	> 26 µM (inactive)
CCCCCCCCNc1ncnc2ccccc12	> 26 µM (inactive)
COc1ccc(/C=C/C(=O)c2ccncc2)c2ccccc12	> 26 µM (inactive)
CCn1c(SCC(=O)Nc2ccc(OC)cc2)nc2nc3c(cc2c1=O)CCCC3	> 26 µM (inactive)
O=C(N/N=C/c1ccc[nH]1)c1ccc(COc2cccc3cccnc23)cc1	> 26 µM (inactive)
CC(C)c1ccc(COc2ccc(C(=O)N3CCOCC3)cc2)cc1	> 26 µM (inactive)
C#CCOCCOCCOCCNc1nc(N2CCN(C(=O)CCCCCCCCCCNC(=O)[C@H]([C@@H](C)CC)n3cc(CCCCCN)nn3)CC2)nc(N2CCN(C(=O)CCCCCCCCCCNC(=O)[C@@H]([C@H](C)O)n3cc(C)nn3)CC2)n1	> 26 µM (inactive)
Cc1ccc(-c2nc(C(Cl)Cl)c3ccccc3n2)cc1	2.66 µM

Structure (SMILES)	AC50
C=C1C(=O)C=C2CN(C(=O)c3ccccc3)[C@@](Cc3ccc(F)cc3)(C(=O)OC)[C@@H]12	> 26 µM (inactive)
CCC(/C=C1\Sc2ccc(OC)cc2N1CC)=C\c1sc2ccc(OC)cc2[n+]1CCCS(=O)(=O)[O-]	> 26 µM (inactive)
CC1(C)C(C=C(Cl)Cl)C1C(=O)Nc1ccc([N+](=O)[O-])cc1 (configuration not stated)	> 26 µM (inactive)
COc1ccc(Sc2nc(-c3ccccn3)ncc2OC)cc1	> 26 µM (inactive)
C=C[C@H](CC(C)C)N(Cc1ccccc1)S(=O)(=O)N(Cc1ccc(OC)cc1)[C@H](C=C)CC(C)C	> 26 µM (inactive)
CC(=O)N1CCCc2cc(S(=O)(=O)N3CCCC(C(=O)N4CCN(c5cccc(Cl)c5)CC4)C3)ccc21 (configuration not stated)	> 26 µM (inactive)
O=C(CSc1nnc(Cn2nnc3ccccc32)o1)N(Cc1ccc(Cl)cc1)c1ccccc1	> 26 µM (inactive)
Cc1cc(C)cc(NC(=O)/C(C#N)=C/c2cn(CC(=O)NCc3ccco3)c3ccccc23)c1	> 26 µM (inactive)
O=S(=O)(NCc1ccncc1)c1ccc(Br)s1	> 26 µM (inactive)
CCCC[C@@H](CN[C@H](C)CNC)NCC1CCC(C(C)(C)C)CC1 (some centres not stated)	25.6 µM
Cc1[nH]n(C2=NCCS2)c(=O)c1N=Nc1cccc(C(F)(F)F)c1	> 26 µM (inactive)
O=c1c2ccccc2nc(COc2ccccc2)n1/N=C/c1ccc(O)cc1O	> 26 µM (inactive)
O=C(N/N=C/c1cnc(N2CCCCC2)s1)c1ccc(C(F)(F)F)cc1	> 26 µM (inactive)
Fc1cc(F)c2nc(Nc3nc4c(F)cccc4s3)sc2c1	> 26 µM (inactive)
COc1ccc(-c2ccc3c(c2)S(=O)(=O)c2cccc(C(=O)NCCOc4ccccc4Cl)c2C3=O)cc1OC	> 26 µM (inactive)
Cc1ccc(NC(=O)C2=C(c3ccccc3)S(=O)(=O)CCS2(=O)=O)cc1	> 26 µM (inactive)
O=[N+]([O-])c1ccc(-c2nc(C(Cl)Cl)c3ccccc3n2)cc1	0.62 µM
Cc1cccc2sc(NNC(=O)c3ccc(S(=O)(=O)N4CCCC(C)C4)cc3)nc12 (configuration not stated)	> 26 µM (inactive)
COc1cc(-c2nc3ccc(C)cn3c2NCc2ccccc2)ccc1SC1CCCCC1	> 26 µM (inactive)
CC(Oc1ccc(Cl)cc1Cl)c1nc(-c2ccc(NC(=O)c3cccnc3)cc2)no1 (configuration not stated)	> 26 µM (inactive)
CCCCNc1c(-c2ccc(OC)c(SC(C)CC)c2)nc2ccc(C)cn12 (configuration not stated)	> 26 µM (inactive)
